Where a name gives a salt, the structure may show the parent alone.
Target: RIPK1 (recombinant GST-RIPK1 kinase domain, residues 1-327) (Homo sapiens (Human), UniProt Q13546)
Experiment: RIPK1-ADP-Glo Enzymatic Assay
Format: biochemical
Details: ADP-Glo; 25 nM GST-RIPK1, 300 μM ATP; assay lower limit ~25 nM; read-out: RIPK1 V0 Ec50
How it was run: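 Compounds titrated 10-pt 1:3 from 100000 nM top (1% DMSO); 30 min preinc w/ 25 nM Sf21-expressed enzyme, RT; start w/ ATP (300 μM final) + dephos-MBP (3 μM); 150 min; ADP-Glo lumi; 4-param fit → EC50.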

Chain of RIPK1 (recombinant GST-RIPK1 kinase domain, residues 1-327) (Q13546 1-327): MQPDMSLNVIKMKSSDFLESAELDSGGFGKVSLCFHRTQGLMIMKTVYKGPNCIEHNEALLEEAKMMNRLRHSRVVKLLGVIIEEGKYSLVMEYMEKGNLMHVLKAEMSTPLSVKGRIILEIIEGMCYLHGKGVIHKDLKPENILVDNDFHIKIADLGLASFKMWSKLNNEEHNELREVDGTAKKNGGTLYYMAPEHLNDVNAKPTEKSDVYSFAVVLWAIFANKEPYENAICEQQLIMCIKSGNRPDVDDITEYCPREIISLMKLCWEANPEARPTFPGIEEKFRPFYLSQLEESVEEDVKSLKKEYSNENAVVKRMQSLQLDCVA

Row | EC50 [nM] | SMILES
1 | 62.2 | O=C(c1cccc2c1CCC2)N1CCC2(CC1)O[C@@H]1CC[C@@H](c3cc(F)cc(F)c3)N1C2=O [Example 5.29, (5′S,7a′R)-5′-(3,5-difluoro-phenyl)-1-(2,3-dihydro-1H-indene-4-carbonyl)-tetrahydro-3′H-spiro [piperidine-4,2′-pyrrolo-[2,1-b]oxazol]-3′-one]
2 | 173 | O=C(c1noc2c1CCCC2)N1CCC2(CC1)O[C@@H]1CC[C@@H](c3cc(F)cc(F)c3)N1C2=O [Example 6.17, (5′S,7a′R)-5′-(3,5-difluorophenyl)-1-(4,5,6,7-tetrahydro-1,2-benoxazole-3-carbonyl)tetrahydro-3′H-spiro[piperidine-4,2′-pyrrolo[2,1-b] [1,3]oxazol]-3′-one]
3 | 211 | O=C(c1cnc2snnc2c1)N1CCC2(CC1)O[C@@H]1CC[C@@H](c3cc(F)cc(F)c3)N1C2=O [Example 6.46, (5′S,7a′R)-5′-(3,5-difluorophenyl)-1-([1,2,3]thiadiazolo-[5,4-b]pyridine-6-carbonyl)tetrahydro-3′H-spiro[piperidine-4,2′-pyrrolo[2,1-b] [1,3]oxazol]-3′-one]
4 | 191 | N#CC1(NC(=O)c2nc(N3CCC4(CC3)O[C@@H]3CC[C@@H](c5cc(F)cc(F)c5)N3C4=O)ncc2F)CCC1 [Example 7.13, N-(1-cyanocyclobutyl)-2-[(5′S,7a′R)-5′-(3,5-difluorophenyl)-3′-oxotetrahydro-1H,3′H-spiro[piperidine-4,2′-pyrrolo[2,1-b][1,3]oxazol]-1-yl]-5-fluoropyrimidine-4-carboxamide]
5 | 159 | O=C1N2[C@@H](CC[C@H]2c2cc(F)cc(F)c2)OC12CCN(c1ccc(C3CCC3)c3ccnn13)CC2 [Example 18.1, (5′S,7a′R)-1-(4-Cyclobutylpyrazolo[1,5-a]pyridin-7-yl)-5′-(3,5-difluorophenyl)tetrahydro-3′H-spiro[piperidine-4,2′-pyrrolo[2,1-b]oxazol]-3′-one, TFA salt]
6 | < 25 | O=C(c1ccc2sncc2c1)N1CCC2(CC1)O[C@@H]1CC[C@@H](c3cc(F)cc(F)c3)N1C2=O [Example 6.65, (5′S,7a′R)-1-(1,2-benzothiazole-5-carbonyl)-5′-(3,5-difluorophenyl)tetra-hydro-3′H-spiro [piperidine-4,2′-pyrrolo[2,1-b][1,3]-oxazol]-3′-one]
7 | 78.7 | O=C(c1cccc(C23CC(C2)C3)n1)N1CCC2(CC1)O[C@@H]1CC[C@@H](c3cc(F)cc(F)c3)N1C2=O [Example 6.137, (5′S,7a′R)-1-[6-(bicyclo[1.1.1]pentan-1-yl)pyridine-2-car-bonyl]-5-(3,5-difluoro-phenyl)tetrahydro-3′H-spiro[piperidine-4,2′-pyrrolo[2,1-b] [1,3]oxazol]-3′-one]
8 | 98.4 | O=C1N2[C@@H](CC[C@H]2c2cc(F)cc(F)c2)OC12CCN(c1cccc3nccn13)CC2 [Example 13.5, (5′S,7a′R)-5′-(3,5-difluorophenyl)-1-(imidazo[1,2-a]pyridin-5-yl)tetrahydro-3′H-spiro[piperidine-4,2′-pyrrolo[2,1-b]oxazol]-3′-one, TFA salt]
9 | < 25 | Cc1nc(N2CCC3(CC2)O[C@@H]2CC[C@@H](c4ccccc4)N2C3=O)ncc1-c1ncco1 [Example 21.11, (5′S,7a′R)-1-[4-methyl-5-(1,3-oxazol-2-yl)pyrimidin-2-yl]-5′-phenyltetrahydro-3′H-spiro[piperidine-4,2′-pyrrolo[2,1-b][1,3]oxazol]-3′-one]

The remaining lines, values behind:

Row | SMILES | EC50 [nM]
10 | O=C(c1cccc(F)c1F)N1CCC2(CC1)O[C@@H]1CC[C@@H](c3cc(F)cc(F)c3)N1C2=O [Example 5.3, (5′S,7a′R)-1-(2,3-difluoro-benzene-1-carbonyl)-5′-(3,5-difluorophenyl)tetra-hydro3′H-spiro[piperidine-4,2′-pyrrolo[2,1-b][1,3]oxazol]-3′-one] | < 25
11 | NC(=O)c1cc(N2CCC3(CC2)O[C@@H]2CC[C@@H](c4cc(F)cc(F)c4)N2C3=O)ncn1 [Example 4.185, 6-[(5′S,7a′R)-5′-(3,5-difluorophenyl)-3′-oxotetrahydro-1H,3′H-spiro[piperidine-4,2′-pyrrolo[2,1-b] [1,3]oxazol]-1-yl]pyrimidine-4-carboxamide] | 83
12 | Cc1ncc([C@@H]2CC[C@H]3OC4(CCN(c5ccnc6c(F)cnn56)CC4F)C(=O)N32)cc1F (stereo partly drawn) [Example 4.130, (5′S,7a′R)-3-fluoro-5′-(5-fluoro-6-methylpyridin-3-yl)-1-(3-fluoropyrazolo[1,5-a]pyrimidin-7-yl)tetrahydro-3′H-spiro[piperidine-4,2′-pyrrolo[2,1-b] [1,3]oxazol]-3′-one] | < 25
13 | Cc1c(Cl)ncnc1N1CCC2(CC1)O[C@@H]1CC[C@@H](c3ccccc3)N1C2=O [Example 4.30, (5′S,7a′R)-1-(6-chloro-5-methylpyrimidin-4-yl)-5′-phenyltetrahydro-3′H-spiro[piperidine-4,2′-pyrrolo[2,1-b] [1,3]oxazol]-3′-one] | < 25
14 | N#Cc1cnc(N2CCC3(CC2)O[C@@H]2CC[C@@H](c4cc(F)cc(F)c4)N2C3=O)s1 [Example 4.101, 2-((5′S,7a′R)-5′-(3,5-difluorophenyl)-3′-oxotetrahydro-3′H-spiro[piperidine-4,2′-pyrrolo[2,1-b]oxazol]-1-yl)thiazole-5-carbonitrile] | 40.4
15 | COC(=O)N1CCC2(CC1)O[C@@H]1CC[C@@H](c3cc(F)cc(F)c3)N1C2=O [Example 1.2, methyl (5′S,7a′R)-5′-(3,5-difluorophenyl)-3′-oxotetrahydro-1H,3′H-spiro[piperidine-4,2′-pyrrolo[2,1-b] [1,3]oxazole]-1-carboxylate] | 115
16 | CC1CN(c2ncnc3ccnn23)CCC12O[C@@H]1CC[C@@H](c3cc(F)cc(F)c3)N1C2=O (stereo partly drawn) [Example 4.267, (5′S,7a′R)-5′-(3,5-difluorophenyl)-3-methyl-1-(pyrazolo[1,5-a] [1,3,5]triazin-4-yl)tetrahydro-3′H-spiro[piperidine-4,2′-pyrrolo[2,1-b] [1,3]oxazol]-3′-one] | < 25
17 | O=C1N2[C@@H](CC[C@H]2c2ccccc2)OC12CCN(c1ncnc3c1CCO3)CC2 [Example 4.217, (5′S,7a′R)-1-(5,6-dihydrofuro[2,3-d]pyrimidin-4-yl)-5′-phenyltetrahydro-3′H-spiro[piperidine-4,2′-pyrrolo[2,1-b] [1,3]oxazol]-3′-one] | 25.8
18 | O=C1N2[C@@H](CC[C@H]2c2ccccc2)OC12CN(c1ccnc3c(F)cnn13)C2 [Example 4.96, (5′S,7a′R)-1-(3-fluoropyrazolo[1,5-a]pyrimidin-7-yl)-5′-phenyltetrahydro-3′H-spiro[azetidine-3,2′-pyrrolo[2,1-b]oxazol]-3′-one, TFA salt] | < 25
19 | O=C(c1ccccc1F)N1CCC2(CC1)O[C@@H]1CC[C@@H](c3cccc(F)c3)N1C2=O [Example 1.7, (5′S,7a′R)-1-(2-fluorobenzene-1-carbonyl)-5′-(3-fluorophenyl)tetrahydro-3′H-spiro[piperidine-4,2′-pyrrolo[2,1-b] [1,3]oxazol]-3′-one] | < 25
20 | O=C1N2[C@H](CC13CCN(c1ccnc4c(F)cnn14)CC3)OC[C@H]2c1ccccc1 [Example 4.120, (3′R,7a′S)-1-(3-fluoropyrazolo[1,5-a]pyrimidin-7-yl)-3′-phenyltetrahydro-5′H-spiro[piperidine-4,6′-pyrrolo[2,1-b] [1,3]oxazol]-5′-one] | < 25
21 | Cc1cn(-c2cc(N3CCC4(CC3)O[C@@H]3CC[C@@H](c5ccccc5)N3C4=O)ncn2)cn1 [Example 4.172, (5′S,7a′R)-1-[6-(4-methyl-1H-imidazol-1-yl)pyrimidin-4-yl]-5′-phenyltetrahydro-3′H-spiro[piperidine-4,2′-pyrrolo[2,1-b] [1,3]oxazol]-3′-one] | 25.2
22 | Cc1ccn(-c2cccc(N3CCC4(CC3)O[C@@H]3CC[C@@H](c5ccccc5)N3C4=O)n2)n1 [Example 4.263, (5′S,7a′R)-1-[6-(3-methyl-1H-pyrazol-1-yl)pyridin-2-yl]-5′-phenyltetrahydro-3′H-spiro[piperidine-4,2′-pyrrolo[2,1-b] [1,3]oxazol]-3′-one] | 26.2
23 | O=C1N2[C@@H](CC[C@H]2c2cc(F)cc(F)c2)OC12CCN(c1ccnc(C(F)F)n1)CC2 [Example 4.9, (5′S,7a′R)-1-[2-(difluoromethyl)pyrimidin-4-yl]-5′-(3,5-difluorophenyl)tetrahydro-3′H-spiro[piperidine-4,2′-pyrrolo[2,1-b] [1,3]oxazol]-3′-one] | < 25
24 | N#Cc1ccc(N2CCC3(CC2)O[C@@H]2CC[C@@H](c4cc(F)cc(F)c4)N2C3=O)cc1F [Example 4.18, 4-[(5′S,7a′R)-5′-(3,5-difluorophenyl)-3′-oxotetrahydro-1H,3′H-spiro[piperidine-4,2′-pyrrolo[2,1-b] [1,3]oxazol]-1-yl]-2-fluorobenzonitrile] | < 25
25 | O=C(c1ccccc1F)N1CCC2(CC1)O[C@@H]1CC[C@@H](c3ccccc3)N1C2=O [Example 1.10, (5′S,7a′R)-1-(2-fluorobenzene-1-carbonyl)-5′-phenyltetrahydro-3′H-spiro[piperidine-4,2′-pyrrolo[2,1-b] [1,3]oxazol]-3′-one] | < 25
26 | O=C1N2[C@@H](CC[C@H]2c2ccccc2)OC12CCN(c1cc(-n3cccn3)ncn1)CC2 [Example 4.174, (5′S,7a′R)-5′-phenyl-1-[6-(1H-pyrazol-1-yl)pyrimidin-4-yl]tetrahydro-3′H-spiro[piperidine-4,2′-pyrrolo[2,1-b] [1,3]oxazol]-3′-one] | < 25
27 | O=C1N2[C@@H](CC[C@H]2c2cc(F)cc(F)c2)OC12CCN(c1ncc(F)c(C(F)F)n1)CC2 [Example 4.66, (5′S,7a′R)-1-[4-(difluoromethyl)-5-fluoropyrimidin-2-yl]-5′-(3,5-difluorophenyl)tetrahydro-3′H-spiro[piperidine-4,2′-pyrrolo[2,1-b] [1,3]oxazol]-3′-one] | 38.4
